Results reported in patent US20240158446A1, “CYCLIC COMPOUND HAVING SELECTIVE INHIBITORY ACTION ON KRAS OVER HRAS AND NRAS” (CHUGAI SEIYAKU KABUSHIKI KAISHA, priority 2021, published 2024).
pIC50, pKd: −log10 of the molar value. Like-named read-outs stand apart in the source and are kept apart here.

Tests used:
[1] = target: GDP-bound NRAS wild-type protein (Homo sapiens, UniProt P01111); assay: Binding to NRAS by surface plasmon resonance (SPR), Single Cycle Kinetics; conditions: for NRAS/KRAS (ratio of KD value for NRAS to KD value for KRAS): SPR, GDP-bound NRAS wild-type protein vs GDP-bound KRAS wild-type protein; for NRAS/KRAS (ratio of KD value with respect to GDP-bound NRAS wild-type protein to KD value with respect to KRAS): SPR KD ratio NRAS/KRAS, class symbols
[2] = tested on: human lung cancer strain NCI-H441;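 further: cell proliferation inhibition after four days measured by CellTiter-Glo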
[3] = target: GDP-bound KRAS wild-type protein (Homo sapiens, UniProt P01116); assay: Binding to KRAS by surface plasmon resonance (SPR), Single Cycle Kinetics; conditions: GDP-bound KRAS wild-type protein, read-out: KRAS KD
[4] = target: GDP-bound HRAS wild-type protein (Homo sapiens, UniProt P01112); assay: Binding to HRAS by surface plasmon resonance (SPR), Single Cycle Kinetics; conditions: for HRAS/KRAS (ratio of KD value for HRAS to KD value for KRAS): SPR, GDP-bound HRAS wild-type protein vs GDP-bound KRAS wild-type protein; for HRAS/KRAS (ratio of KD value with respect to GDP-bound HRAS wild-type protein to KD value with respect to KRAS): SPR KD ratio HRAS/KRAS, class symbols
[5] = SPR, Single Cycle Kinetics, 1:1 binding model
[6] = SPR Single Cycle Kinetics, 1:1 binding model

Sequence of GDP-bound HRAS wild-type protein (P01112 whole entry): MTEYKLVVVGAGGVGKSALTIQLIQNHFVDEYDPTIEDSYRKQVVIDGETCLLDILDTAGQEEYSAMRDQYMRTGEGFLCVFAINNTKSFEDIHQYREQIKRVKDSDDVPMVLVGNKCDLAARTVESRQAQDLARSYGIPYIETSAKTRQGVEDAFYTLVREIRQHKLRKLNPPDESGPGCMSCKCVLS
Sequence of GDP-bound NRAS wild-type protein (P01111 whole entry): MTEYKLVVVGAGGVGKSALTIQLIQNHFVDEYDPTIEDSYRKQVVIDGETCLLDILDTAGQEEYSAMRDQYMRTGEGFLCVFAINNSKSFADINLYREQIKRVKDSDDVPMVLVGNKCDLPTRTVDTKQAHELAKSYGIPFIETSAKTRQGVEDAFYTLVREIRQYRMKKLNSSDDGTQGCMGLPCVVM
Sequence of GDP-bound KRAS wild-type protein (P01116 whole entry): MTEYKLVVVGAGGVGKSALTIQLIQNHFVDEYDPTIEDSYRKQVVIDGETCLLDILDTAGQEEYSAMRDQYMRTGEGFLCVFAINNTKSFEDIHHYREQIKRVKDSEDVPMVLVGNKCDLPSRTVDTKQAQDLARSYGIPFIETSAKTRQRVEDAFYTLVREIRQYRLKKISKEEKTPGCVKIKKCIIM

SMILES	NRAS/KRAS (ratio of KD value for NRAS to KD value for KRAS) [1]	pIC50 [2]	pKd ([3]; SPR, Single Cycle Kinetics)	HRAS/KRAS (ratio of KD value for HRAS to KD value for KRAS) [4]	NRAS/KRAS (ratio of KD value for NRAS to KD value for KRAS) ([1]; KD ratio class)	pKd [3, 5]	HRAS/KRAS (ratio of KD value for HRAS to KD value for KRAS) ([4]; KD ratio class)	NRAS/KRAS (ratio of KD value with respect to GDP-bound NRAS wild-type protein to KD value with respect to KRAS) [1]	pKd [3, 6]	HRAS/KRAS (ratio of KD value with respect to GDP-bound HRAS wild-type protein to KD value with respect to KRAS) [4]
CCCOC[C@H]1C(=O)N[C@@H]([C@@H](C)CC)C(=O)N(C)CC(=O)N(C)[C@H]2C/C=C\CCN(C2=O)[C@@H](Cc2ccc(C)cc2)C(=O)N(C)CC(=O)N[C@@H](CCc2ccc(C(F)(F)F)c(Cl)c2)C(=O)N2C[C@@H](C)C[C@H]2C(=O)NC2(CC(C)(C)C2)C(=O)N(C)[C@@H](C2CCCC2)C(=O)N(C)[C@H](C(=O)N(C)CC)CC(=O)N1C [PP2467]	A (a compound having 10 or more and less than 20 is denoted as A)	7.66	9.59	B (a compound having 3 or more and less than 10 is denoted as B)						
CCO[C@@H]1C[C@H]2C(=O)NC3(CCC3)C(=O)N(C)[C@@H](C3CCCC3)C(=O)N(C)[C@H](C(=O)N(C)C)CC(=O)N(C)[C@@H](CSC)C(=O)N[C@@H]([C@@H](C)CC)C(=O)N(C)CC(=O)N(C)[C@H]3C/C=C\CCN(C3=O)[C@@H](CC3CCC(F)(F)CC3)C(=O)N(C)CC(=O)N[C@@H](CCc3cc(F)c(C(F)(F)F)c(F)c3)C(=O)N2C1 [PP1449, (2S,8S,12R,14S,20S,23S,27R,30S,36S,38Z)-20-cyclopentyl-2-[(4,4-difluorocyclohexyl)methyl]-8-[2-[3,5-difluoro-4-(trifluoromethyl)phenyl]ethyl]-12-ethoxy-N,N,4,19,22,26,32,35-octamethyl-30-[(1 S)-1-methylpropyl]-27-(methylsulfanylmethyl)-3,6,9,15,18,21,25,28,31,34,42-undecaoxo-spiro[1,4,7,10,16,19,22,26,29,32,35-undecazatricyclo[34.5.1.0^10,14]dotetracont-38-ene-17,1′-cyclobutane]-23-carboxamide]		7.51			A (a compound having 10 or more and less than 20 is denoted as A)	10.01	A (a compound having 10 or more and less than 20 is denoted as A)			
CCC[C@H]1C(=O)N[C@@H]([C@@H](C)CC)C(=O)N(C)CC(=O)N(C)[C@H]2C/C=C\CCN(C2=O)[C@@H](Cc2ccc(C)cc2)C(=O)N(C)CC(=O)N[C@@H](CCc2ccc(C(F)(F)F)c(OC)c2)C(=O)N2C[C@H](OCC)C[C@H]2C(=O)NC2(CC(C)(C)C2)C(=O)N(C)[C@@H](CC2CCC2)C(=O)N(C)[C@H](C(=O)N(C)C)CC(=O)N1C [PP2753]		7.28						A (a compound having 10 or more and less than 20 is denoted as A)	9.01	B (a compound having 3 or more and less than 10 is denoted as B)
CCCC[C@H]1C(=O)NC2(CCC2)C(=O)N(C)[C@@H](C2CCCC2)C(=O)N(C)[C@H](C(=O)N(C)C)CC(=O)N(C)[C@@H](CC)C(=O)N[C@@H]([C@@H](C)CC)C(=O)N(C)CC(=O)N(C)[C@H]2C/C=C\CCN(C2=O)[C@@H](Cc2ccc(C(F)(F)F)cc2)C(=O)N(C)CC(=O)N[C@@H](CCc2cc(F)c(C(F)(F)F)c(F)c2)C(=O)N1C [PP1150]	AA (a compound having 20 or more is denoted as AA)	7.37	9.77	A (a compound having 10 or more and less than 20 is denoted as A)						
CCO[C@@H]1C[C@H]2C(=O)NC3(CCC3)C(=O)N(C)[C@@H](C3CCCC3)C(=O)N(C)[C@H](C(=O)N3CCOCC3)CC(=O)N(C)[C@@H](CC(F)F)C(=O)N[C@@H]([C@@H](C)CC)C(=O)N(C)CC(=O)N(C)[C@H]3C/C=C\CCN(C3=O)[C@@H](Cc3ccc(C(F)(F)F)cc3)C(=O)N(C)CC(=O)N[C@@H](CCc3cc(F)c(C(F)(F)F)c(F)c3)C(=O)N2C1 [PP1285]		7.61			AA (a compound having 20 or more is denoted as AA)	9.82	A (a compound having 10 or more and less than 20 is denoted as A)			
CCCOC[C@H]1C(=O)N[C@@H]([C@@H](C)CC)C(=O)N2CCC[C@H]2C(=O)N(C)[C@H]2C/C=C\CCN(C2=O)[C@@H](CC2CCC(F)(F)CC2)C(=O)N(C)CC(=O)N[C@@H](CCc2ccc(C(F)(F)F)c(OC)c2)C(=O)N2C[C@@H](C)C[C@H]2C(=O)N(C)C2(CCC2)C(=O)N(C)[C@@H](C2CCCC2)C(=O)N(C)[C@H](C(=O)N(C)C)CC(=O)N1C [PP2381]	A (a compound having 10 or more and less than 20 is denoted as A)	8.49	9.03	A (a compound having 10 or more and less than 20 is denoted as A)						
CCO[C@@H]1C[C@H]2C(=O)NC3(CCCC3)C(=O)N(C)[C@@H](C3CCCC3)C(=O)N(C)[C@H](C(=O)N(C)C)CC(=O)N(C)[C@@H](C)C(=O)N[C@@H]([C@@H](C)CC)C(=O)N(C)CC(=O)N(C)[C@H]3C/C=C\CCN(C3=O)[C@@H](CC3CCC(F)(F)CC3)C(=O)N(C)CC(=O)N[C@@H](CCc3cc(F)c(C(F)(F)F)c(F)c3)C(=O)N2C1 [PP1456, (2S,8S,12R,14S,20S,23S,27S,30S,36S,38Z)-20-cyclopentyl-2-[(4,4-difluorocyclohexyl)methyl]-8-[2-[3,5-difluoro-4-(trifluoromethyl)phenyl]ethyl]-12-ethoxy-N,N,4,19,22,26,27,32,35-nonamethyl-30-[(1S)-1-methylpropyl]-3,6,9,15,18,21,25,28,31,34,42-undecaoxo-spiro[1,4,7,10,16,19,22,26,29,32,35-undecazatricyclo[34.5.1.0^10,14]dotetracont-38-ene-17,1′-cyclopentane]-23-carboxamide]		7.05			A (a compound having 10 or more and less than 20 is denoted as A)	9.92	A (a compound having 10 or more and less than 20 is denoted as A)			
CCC[C@H]1C(=O)N[C@@H]([C@@H](C)CC)C(=O)N(C2CC2)CC(=O)N(C)[C@H]2C/C=C\CCN(C2=O)[C@@H](Cc2ccc(C(F)(F)F)cc2)C(=O)N(C)CC(=O)N[C@@H](CCc2ccc(Cl)c(Cl)c2)C(=O)N2C[C@H](OCC)C[C@H]2C(=O)NC2(CC(C)(C)C2)C(=O)N(C)[C@@H](CC(C)(C)C)C(=O)N(C)[C@H](C(=O)N(C)C)CC(=O)N1C [PP2749]		7.66						AA (a compound having 20 or more is denoted as AA)	9.06	A (a compound having 10 or more and less than 20 is denoted as A)
CCO[C@@H]1C[C@H]2C(=O)NC3(CCC3)C(=O)N(C)[C@@H](C3CCCC3)C(=O)N(C)[C@H](C(=O)N(C)C)CC(=O)N(C)[C@@H](CC3CC3)C(=O)N[C@@H]([C@@H](C)CC)C(=O)N(C)CC(=O)N(C)[C@H]3C/C=C\CCN(C3=O)[C@@H](Cc3ccc(C)cc3)C(=O)N(C)CC(=O)N[C@@H](CCc3ccc(Cl)c(Cl)c3)C(=O)N2C1 [PP1485]		7.52			A (a compound having 10 or more and less than 20 is denoted as A)	9.55	A (a compound having 10 or more and less than 20 is denoted as A)			
CCCOC[C@H]1C(=O)N[C@@H]([C@@H](C)CC)C(=O)N(C)CC(=O)N(C)[C@H]2C/C=C\CCN(C2=O)[C@@H](CC2CCC(F)(F)CC2)C(=O)N(C)CC(=O)N[C@@H](CCc2ccc(C(F)(F)F)c(OC)c2)C(=O)N2C[C@@H](C)C[C@H]2C(=O)NC2(CC(C)(C)C2)C(=O)N(C)[C@@H](C(CC)CC)C(=O)N(C)[C@H](C(=O)N(C)C)CC(=O)N1C [PP2483]	A (a compound having 10 or more and less than 20 is denoted as A)	6.71	8.80	A (a compound having 10 or more and less than 20 is denoted as A)						
CCOC[C@H]1C(=O)N[C@@H]([C@@H](C)CC)C(=O)N(C)CC(=O)N(C)[C@H]2C/C=C\CCN(C2=O)[C@@H](CC2CCCCC2)C(=O)N(C)CC(=O)N[C@@H](CCc2cc(F)c(C(F)(F)F)c(F)c2)C(=O)N2C[C@H](OCC)C[C@H]2C(=O)NC2(CC(C)(C)C2)C(=O)N(C)[C@@H](C(CC)CC)C(=O)N(C)[C@H](C(=O)N(C)C)CC(=O)N1C [PP2479]	AA (a compound having 20 or more is denoted as AA)	7.59	8.85	A (a compound having 10 or more and less than 20 is denoted as A)						
